According to ChEMBL document CHEMBL3526078, “Pharmacokinetics and hepatic uptake of eltrombopag, a novel platelet-increasing agent” (Drug Metab Dispos, 2011):
In brackets after ≈: the same amount, converted by molar mass.

Assays:
[1] = Total clearance in bile-duct cannulated Sprague-Dawley rat at 1 mg/kg, iv in presence of 20 mg/kg rifampicin (reference value: 34.3 +/- 3.9 ml/h/kg); format: ADME, organism-based; conditions: in vivo
[2] = Volume of distribution at steady state in Sprague-Dawley rat at 1 mg/kg, iv; format: ADME, organism-based; design: dose 1 mg/kg, route intravenous; conditions: in vivo, read-out: Vdss
[3] = Clearance in Sprague-Dawley rat urine at 1 mg/kg, iv; format: ADME, organism-based; design: dose 1 mg/kg, route intravenous
[4] = Distribution volume to the central compartment in Sprague-Dawley rat urine at 1 mg/kg, iv; format: ADME, organism-based; design: dose 1 mg/kg, route intravenous; conditions: read-out: Vc
[5] = Total clearance in Sprague-Dawley rat at 1 mg/kg, iv; format: ADME, organism-based; design: dose 1 mg/kg, route intravenous; conditions: in vivo
Hepatocyte [6] = assay: Drug uptake in mouse hepatocytes at 37 degC up to 5 mins; format: ADME, cell-based
Hepatocyte [7] = assay: Drug uptake in mouse hepatocytes at 4 degC; format: ADME, cell-based
[8] = Solubility of the compound; format: physicochemical
Hepatocyte [9] = assay: Drug uptake in mouse hepatocytes at pH 7.4; format: ADME, cell-based
Hepatocyte [10] = assay: Drug uptake in mouse hepatocytes at pH 6.5; format: ADME, cell-based
Hepatocyte [11] = assay: Drug uptake in mouse hepatocytes at pH 5.5; format: ADME, cell-based
Hepatocyte [12] = assay: Drug uptake in mouse hepatocytes in absence of Na+; format: ADME, cell-based
Hepatocyte [13] = assay: Drug uptake in mouse hepatocytes in absence of Cl-; format: ADME, cell-based
Hepatocyte [14] = assay: Drug uptake in mouse hepatocytes in presence of rotenone ATP depletor; format: ADME, cell-based
Hepatocyte [15] = assay: Drug uptake in mouse hepatocytes in presence of carbonyl cyanide-para-trifluoromethoxyphenylhydrazone ATP depletor; format: ADME, cell-based
Hepatocyte [16] = assay: Drug uptake in mouse hepatocytes in presence of taurocholate OATP inhibitor; format: ADME, cell-based
Hepatocyte [17] = assay: Drug uptake in mouse hepatocytes in presence of rifampicin OATP inhibitor; format: ADME, cell-based
Hepatocyte [18] = assay: Drug uptake in mouse hepatocytes in presence of tetraethylammonium; format: ADME, cell-based
Hepatocyte [19] = assay: Drug uptake in mouse hepatocytes in presence of TPeA; format: ADME, cell-based
Hepatocyte [20] = assay: Drug uptake in mouse hepatocytes in presence of quinidine; format: ADME, cell-based
Hepatocyte [21] = assay: Drug uptake in mouse hepatocytes in presence of verapamil; format: ADME, cell-based
Hepatocyte [22] = assay: Drug uptake in mouse hepatocytes in presence of GABA; format: ADME, cell-based
Hepatocyte [23] = assay: Drug uptake in mouse hepatocytes in presence of phenylalanine; format: ADME, cell-based

Q: Which results are given for `CC1=NN(c2ccc(C)c(C)c2)C(=O)/C1=N\Nc1cccc(-c2cccc(C(=O)O)c2)c1O` [ELTROMBOPAG]?
A: clearance [1]: 0.335 mL/min/kg; Vd [2]: 0.287 L/kg; CL renal [3]: < 1.68 mL/day/kg; Vd [4]: 0.0411 L/kg; clearance [5]: 0.55 mL/min/kg; Drug uptake (Hepatocyte [6]): Active; Drug uptake (Hepatocyte [7]): Not Active; solubility [8]: 200 µM (≈ 88.5 µg/mL); Drug uptake (Hepatocyte [9]): Active; Drug uptake (Hepatocyte [10]): Active; Drug uptake (Hepatocyte [11]): Active; Drug uptake (Hepatocyte [12]): Active; Drug uptake (Hepatocyte [13]): Active; Drug uptake (Hepatocyte [14]): Not Active; Drug uptake (Hepatocyte [15]): Not Active; Drug uptake (Hepatocyte [16]): Not Active; Drug uptake (Hepatocyte [17]): Not Active; Drug uptake (Hepatocyte [18]): Not Active; Drug uptake (Hepatocyte [19]): Not Active; Drug uptake (Hepatocyte [20]): Not Active; Drug uptake (Hepatocyte [21]): Not Active; Drug uptake (Hepatocyte [22]): Not Active; Drug uptake (Hepatocyte [23]): Not Active
